Results published in patent EP3996708B1, “PHARMACEUTICAL COMPOSITIONS COMPRISING INHIBITORS OF OPA1 FOR USE IN THE TREATMENT OF CANCER” (priority 2019, dated 2021).
Like-named read-outs stand apart in the source and are kept apart here. Values belong to the compound of their own block, whether it stands above or below them.

Assays:
rOPA1 = target: T1, rOPA1 (Mus musculus, UniProt P58281); assay: Malachite green (MG) GTPase activity assay of rOPA1, assay set-up and high-throughput screening (384-well); type: biochemical; conditions: for inhibition of rOPA1 GTP hydrolysis: comparison of candidates for positive control; for rOPA1 activity: increasing concentrations of the non-hydrolysable GTP analogues
T1 construct: His-tag (C); made in house; host or cells: E. coli
T1 sequence (P58281 168-960 limits assumed): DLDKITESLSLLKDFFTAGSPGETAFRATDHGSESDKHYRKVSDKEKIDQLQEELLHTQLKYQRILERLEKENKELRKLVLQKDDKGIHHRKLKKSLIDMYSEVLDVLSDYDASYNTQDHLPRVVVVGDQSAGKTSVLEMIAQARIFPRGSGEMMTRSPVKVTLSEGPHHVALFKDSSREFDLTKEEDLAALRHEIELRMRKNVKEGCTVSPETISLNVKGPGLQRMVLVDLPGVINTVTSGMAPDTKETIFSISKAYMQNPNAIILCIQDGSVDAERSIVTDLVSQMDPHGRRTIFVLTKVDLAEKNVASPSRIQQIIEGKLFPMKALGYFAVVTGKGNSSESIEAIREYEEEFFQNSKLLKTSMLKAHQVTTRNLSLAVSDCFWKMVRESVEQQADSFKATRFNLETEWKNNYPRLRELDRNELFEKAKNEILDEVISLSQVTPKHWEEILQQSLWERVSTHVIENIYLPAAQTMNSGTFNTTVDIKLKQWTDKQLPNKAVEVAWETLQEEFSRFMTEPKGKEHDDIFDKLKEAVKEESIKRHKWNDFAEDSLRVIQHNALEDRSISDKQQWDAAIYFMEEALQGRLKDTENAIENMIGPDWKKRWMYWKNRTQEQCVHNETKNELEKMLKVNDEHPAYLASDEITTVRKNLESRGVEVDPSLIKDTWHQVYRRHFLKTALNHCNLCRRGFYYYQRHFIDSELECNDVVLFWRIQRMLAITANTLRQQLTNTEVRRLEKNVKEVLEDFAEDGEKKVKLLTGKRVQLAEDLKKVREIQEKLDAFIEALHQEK

[1] = system: Mouse embryonic fibroblasts (MEFs); assay: Cell permeability (280 nm absorbance of extracellular medium; SPE and HPLC-UV of cell lysates); type: in vitro ADME
Description: (§1) Drug Discov Today 17, 419-424).

[2] = system: recombinant Dynamin-1 lacking the proline rich domain (PRD) (Dyn1ΔPRD); assay: Malachite green GTPase activity assay of recombinant Dynamin-1 (specificity); conditions: even at concentrations four times above the calculated IC50 for OPA1
Protocol: The assay was performed in 96 well-plates in a final volume of 190 µl/well. To start the hydrolysis reaction, 10 µl of 0.5 µM of rOPA1 in 40 mM Hepes/KOH pH 7.4 was mixed with 10 µl of 500 µM GTP and 10 mM MgCl2 and incubated for 2 hours at 37 °C. The reaction was then halted by adding to each well 5 µl of 500 µM EDTA, which chelates the Mg2+ required for GTP hydrolysis. To measure the phosphate content, 150 µL of the Malachite Green-ammonium molybdate solution (1 mM Malachite Green, 10 mM ammonium molybdate in 1N HCl) was added at each well. After 15 minutes incubation at 25 °C, was measured the absorbance at 595 nm using a microplate reader. Phosphate concentration of each sample was calculated from a standard curve ranging from 1 to 100 µM Pi generated for each experiment. […] As positive control of OPA1 activity inhibition, 5 µl of 500 µM EDTA were added before incubation with GTP to prevent the hydrolysis reaction. Samples with only buffer and 500 µM GTP were used as blank controls.

MDA-MB-231 cells [3] = assay: Scratch wound migration assay; type: cell-based, human; conditions: cells transfected with OPA1 siRNA, 20 µM MYLS22
Protocol: Scratch wound migration assay: HUVEC and MDA cells were cultured in 48-well plates in 800 µl of EGM2 for 48 hours and were wounded with the head of 200 µl tips.

[4] = Solubility in water, DMSO and cell culture medium; type: physicochemical
Description: as §1

WT MEFs = assay: Analysis of cell death by Annexin V / propidium iodide flow cytometry in MEFs; conditions: concentrations up to 100 µM, 24h
Protocol: (§2) Analysis of cell death: 1 × 10^5 MEFs were grown in 12-well plates. […] After different timepoints cells were stained with Annexin-V-FICT and propidium iodide (PI), according to manufacturer's protocol (eBioscienceTM). Cell death was measured by flow cytometry (FACSCalibur) as the percentage of Annexin-V and PI positive events.

[5] = system: mitochondria purified from mouse liver; assay: Membrane potential of isolated mitochondria by Rhodamine 123; conditions: complex I (glutamate/malate) or complex II (succinate) substrates; concentrations well above rOPA1 IC50
Protocol: (§3) Quantitative determination of cytochrome c in the pellet and the supernatant fractions was determined using the rat/mouse specific ELISA Cytochrome c Immunoassay (R&D Systems). Respiratory chain dysfunctions and membrane potential were assayed by monitoring the release of rhodamine123 from pre-stained mitochondria.

MEFs [6] = assay: Cytochrome c immunolocalization after H2O2
Description: For cytochrome c and TOM20 detection, green and red channel images respectively were acquired simultaneously using two separate color channels on the detector assembly of a Zeiss LSM 700 confocal microscope.

MDA-MB-231 cells [7] = assay: Analysis of cell death by Annexin V / propidium iodide flow cytometry in MDA-MB-231 cells
Protocol: After 24h, viability was measured cytofluorimetrically as the percentage of Annexin V and propidium iodide negative cells. […] At the indicated timepoints, cells viability was measured cytofluorimetrically as the percentage of Annexin V and propidium iodide negative cells. Data represents average ± SEM of three independent experiments.
as §2

WT MEFs mitochondria = assay: Live imaging of mitochondrial network (mtYFP); conditions: 50 µM or 100 µM, 24h
Protocol: After 24 h, the coverslips were incubated in Hank's Balanced Salt Solution (HBSS) supplemented with 10 mM Hepes and placed on the stage of the microscope. […] Stacks of 25 images separated by 0.3 µm along the z axis were acquired. Convolution and z-stack project were performed using a plug-in of the ImageJ software (National Institutes of Health). Mitochondrial length was quantified with Image J by measuring the average mitochondrial major axis length of 10 mitochondria per cell in 20 cells per sample.

[8] = system: purified mouse liver mitochondria; assay: In vitro cytochrome c release from isolated mitochondria in response to cBID (ELISA, immunoblot)
Protocol: as §3

MEFs [9] = assay: Mitochondrial membrane potential by TMRM imaging in response to oligomycin; conditions: range of concentrations well above rOPA1 IC50

rOPA1 GTPase activity (rOPA1; 500 µM GDP): not influenced
SMILES: Nc1nc2c(ncn2[C@@H]2O[C@H](COP(=O)(O)OP(=O)(O)O)[C@@H](O)[C@H]2O)c(=O)[nH]1 [GDP]

SMILES: Cc1nn(-c2ccccc2)c2sc(C(=O)Nc3c(C)n(C)n(-c4ccccc4)c3=O)cc12 [MYLS22, N-(1,5-dimethyl-3-oxo-2-phenyl-2,3-dihydro-1H-pyrazol-4-YL) 3-methyl-1-phenyl-1H-thieno[2,3-c]pyrazole-5-carboxamide]
cell permeability ([1]; HPLC-UV at 280 nm on cell lysates after SPE): can enter mammalian cells | concentration of MYLS22 in the extracellular medium ([1]; MEFs in HBSS, 280 nm absorption over time): decreased with incubation time | Dyn1ΔPRD inhibition [2]: did not | effect on cell migration combined with OPA1 silencing (MDA-MB-231 cells [3]): not additive | aqueous solubility [4]: low aqueous solubility | solubility ([4]; DMSO, organic solvent or mixture, read-out: soluble in DMSO): ≤ 1000 µM | solubility ([4]; cell culture medium, plasma or biological fluid, read-out: soluble in cell culture medium): ≤ 150 µM | cell death (WT MEFs): did not cause MEFs death | uptake of the potentiometric dye Rhodamine 123 [5]: did not reduce uptake | time to maximal release of cytochrome c after apoptosis induction (MEFs [6]; 50µM MYLS22, 1 mM H2O2): 30 min | release of cytochrome c (MEFs [6]; 50µM MYLS22, H2O2, versus 25 µM MYLS22 or DMSO): significantly more rapidly | cell death after an apoptotic stimulus (MDA-MB-231 cells [7]; 50 or 100 µM MYLS22 and 1 mM H2O2): enhances MDA-MB-231 cells death | cell death (MDA-MB-231 cells [7]; indicated concentrations, 24h): does not induce cell death in MDA-MB-231 cells | mitochondrial morphology (WT MEFs mitochondria): dose dependent mitochondrial fragmentation and decrease in mitochondrial length | increase of the amount of cytochrome c release ([8]; 25µM MYLS22, cBID): 1.7 fold | amount of cytochrome c release ([8]; 125 µM MYLS22, cBID): more than doubled | mitochondrial membrane potential (TMRM fluorescence) (MEFs [9]): membrane potential was stable

SMILES: O=C(O)CN(CCN(CC(=O)O)CC(=O)O)CC(=O)O [EDTA, ethylenediaminetetraacetic acid]
inhibition of rOPA1 GTP hydrolysis (rOPA1): stably and fully inhibited GTP hydrolysis

inhibition of rOPA1 GTP hydrolysis (rOPA1): residual rOPA1 activity | rOPA1 activity (rOPA1): inhibited
SMILES: Nc1nc2c(ncn2[C@@H]2O[C@H](COP(=O)(O)OP(=O)(O)OP(O)(O)=S)[C@@H](O)[C@H]2O)c(=O)[nH]1 [GTPγS]

rOPA1 activity (rOPA1): inhibited
SMILES: Nc1nc2c(ncn2[C@@H]2O[C@H](COP(=O)(O)OP(=O)(O)NP(=O)(O)O)[C@@H](O)[C@H]2O)c(=O)[nH]1 [GMPPNP]
